Measured values as given in ChEMBL document CHEMBL5291721, “A preclinical secondary pharmacology resource illuminates target-adverse drug reaction associations of marketed drugs” (Nat Commun, 2023).

What was measured:
[1] = target: T1, 5-hydroxytryptamine receptor 2C (Homo sapiens, UniProt P28335)
T1 sequence (P28335 whole entry): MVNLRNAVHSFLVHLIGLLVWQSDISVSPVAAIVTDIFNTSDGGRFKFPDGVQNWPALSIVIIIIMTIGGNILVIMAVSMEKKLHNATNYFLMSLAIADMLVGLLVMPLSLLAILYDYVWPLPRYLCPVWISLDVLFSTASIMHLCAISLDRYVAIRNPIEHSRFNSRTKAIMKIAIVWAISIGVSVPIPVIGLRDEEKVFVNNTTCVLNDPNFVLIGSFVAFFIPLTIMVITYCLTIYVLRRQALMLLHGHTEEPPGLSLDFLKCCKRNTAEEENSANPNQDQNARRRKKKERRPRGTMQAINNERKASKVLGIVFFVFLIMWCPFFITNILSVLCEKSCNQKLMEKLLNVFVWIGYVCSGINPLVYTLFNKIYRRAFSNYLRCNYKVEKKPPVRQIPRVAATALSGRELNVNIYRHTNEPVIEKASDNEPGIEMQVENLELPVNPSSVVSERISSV

Histamine H2 receptor = Histamine H2 receptor (Homo sapiens, UniProt P25021); assay type: functional, cell-based
Sequence of Histamine H2 receptor (P25021 whole entry): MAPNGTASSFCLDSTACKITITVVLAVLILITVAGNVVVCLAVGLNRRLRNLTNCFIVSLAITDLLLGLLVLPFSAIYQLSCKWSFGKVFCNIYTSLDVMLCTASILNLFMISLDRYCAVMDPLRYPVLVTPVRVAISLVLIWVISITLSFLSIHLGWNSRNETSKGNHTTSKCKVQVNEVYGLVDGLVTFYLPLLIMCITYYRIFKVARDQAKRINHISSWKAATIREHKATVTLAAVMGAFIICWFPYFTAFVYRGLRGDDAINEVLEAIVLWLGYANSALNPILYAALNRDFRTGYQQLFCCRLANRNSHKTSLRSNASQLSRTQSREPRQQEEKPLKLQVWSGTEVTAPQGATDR

[2] = target: T2, Muscarinic acetylcholine receptor M2 (Homo sapiens, UniProt P08172); assay type: functional, cell-based
T2 sequence (P08172 whole entry): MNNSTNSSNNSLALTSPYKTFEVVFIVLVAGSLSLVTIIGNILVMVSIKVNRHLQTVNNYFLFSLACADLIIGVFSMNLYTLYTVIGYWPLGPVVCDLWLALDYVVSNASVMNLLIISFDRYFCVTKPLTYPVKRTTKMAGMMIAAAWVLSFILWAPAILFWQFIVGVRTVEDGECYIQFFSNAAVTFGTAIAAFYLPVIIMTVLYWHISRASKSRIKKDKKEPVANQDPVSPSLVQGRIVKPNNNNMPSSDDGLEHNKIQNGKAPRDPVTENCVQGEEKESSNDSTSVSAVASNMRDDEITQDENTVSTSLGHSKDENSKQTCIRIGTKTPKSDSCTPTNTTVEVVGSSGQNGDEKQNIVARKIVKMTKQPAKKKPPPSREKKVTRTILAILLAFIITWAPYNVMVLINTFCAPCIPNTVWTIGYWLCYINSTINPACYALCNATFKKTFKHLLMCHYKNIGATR

[3] = target: T3, Equilibrative nucleoside transporter 1 (Homo sapiens, UniProt Q99808)
T3 sequence (Q99808 whole entry): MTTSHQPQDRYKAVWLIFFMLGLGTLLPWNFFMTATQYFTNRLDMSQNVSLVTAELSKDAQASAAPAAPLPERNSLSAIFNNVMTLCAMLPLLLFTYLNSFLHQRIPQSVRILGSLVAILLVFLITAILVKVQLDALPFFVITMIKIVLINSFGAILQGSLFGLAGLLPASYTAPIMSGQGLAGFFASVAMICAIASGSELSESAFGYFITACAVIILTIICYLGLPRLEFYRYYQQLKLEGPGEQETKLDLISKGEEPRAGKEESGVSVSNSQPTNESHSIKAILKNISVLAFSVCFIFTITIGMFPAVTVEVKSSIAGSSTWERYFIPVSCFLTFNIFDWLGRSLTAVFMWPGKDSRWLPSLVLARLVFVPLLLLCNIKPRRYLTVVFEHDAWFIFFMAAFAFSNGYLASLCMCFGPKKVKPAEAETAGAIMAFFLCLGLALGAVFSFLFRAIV

[4] = target: Neuronal acetylcholine receptor subunit alpha-4 (Homo sapiens, UniProt P43681)
Sequence of Neuronal acetylcholine receptor subunit alpha-4 (P43681 whole entry): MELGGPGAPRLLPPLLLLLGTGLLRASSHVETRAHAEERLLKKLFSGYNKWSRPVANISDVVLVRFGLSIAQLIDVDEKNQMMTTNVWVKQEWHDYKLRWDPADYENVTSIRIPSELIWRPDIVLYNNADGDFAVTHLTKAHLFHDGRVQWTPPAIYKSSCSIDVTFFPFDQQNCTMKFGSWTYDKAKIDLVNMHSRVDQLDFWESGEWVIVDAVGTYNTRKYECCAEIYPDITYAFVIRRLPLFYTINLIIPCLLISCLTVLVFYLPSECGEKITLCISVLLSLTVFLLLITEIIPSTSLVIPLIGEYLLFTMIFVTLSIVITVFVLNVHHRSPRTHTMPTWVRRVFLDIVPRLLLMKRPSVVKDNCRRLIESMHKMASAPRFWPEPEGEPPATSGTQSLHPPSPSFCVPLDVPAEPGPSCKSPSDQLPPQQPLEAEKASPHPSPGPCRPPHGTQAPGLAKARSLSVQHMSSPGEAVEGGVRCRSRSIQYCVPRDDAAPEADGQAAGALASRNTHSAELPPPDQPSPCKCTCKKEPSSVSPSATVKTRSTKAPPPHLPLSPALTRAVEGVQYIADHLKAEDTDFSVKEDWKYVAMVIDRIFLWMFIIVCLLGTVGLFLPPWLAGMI

[5] = target: T4, Alpha-1A adrenergic receptor (Homo sapiens, UniProt P35348)
T4 sequence (P35348 whole entry): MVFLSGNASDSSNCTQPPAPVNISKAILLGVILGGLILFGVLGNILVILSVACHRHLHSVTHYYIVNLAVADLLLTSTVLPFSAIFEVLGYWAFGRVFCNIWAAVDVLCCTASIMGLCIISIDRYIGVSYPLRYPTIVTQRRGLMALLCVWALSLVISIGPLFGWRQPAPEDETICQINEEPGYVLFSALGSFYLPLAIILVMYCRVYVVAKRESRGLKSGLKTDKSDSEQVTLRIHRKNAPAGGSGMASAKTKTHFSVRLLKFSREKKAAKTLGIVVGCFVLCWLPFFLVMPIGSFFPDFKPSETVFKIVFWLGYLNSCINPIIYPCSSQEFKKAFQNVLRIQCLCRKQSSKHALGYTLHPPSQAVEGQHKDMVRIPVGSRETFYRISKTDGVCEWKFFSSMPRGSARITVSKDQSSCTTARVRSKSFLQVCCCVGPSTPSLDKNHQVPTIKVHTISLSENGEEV

[6] = target: Growth hormone secretagogue receptor type 1 (Homo sapiens, UniProt Q92847)
Sequence of Growth hormone secretagogue receptor type 1 (Q92847 whole entry): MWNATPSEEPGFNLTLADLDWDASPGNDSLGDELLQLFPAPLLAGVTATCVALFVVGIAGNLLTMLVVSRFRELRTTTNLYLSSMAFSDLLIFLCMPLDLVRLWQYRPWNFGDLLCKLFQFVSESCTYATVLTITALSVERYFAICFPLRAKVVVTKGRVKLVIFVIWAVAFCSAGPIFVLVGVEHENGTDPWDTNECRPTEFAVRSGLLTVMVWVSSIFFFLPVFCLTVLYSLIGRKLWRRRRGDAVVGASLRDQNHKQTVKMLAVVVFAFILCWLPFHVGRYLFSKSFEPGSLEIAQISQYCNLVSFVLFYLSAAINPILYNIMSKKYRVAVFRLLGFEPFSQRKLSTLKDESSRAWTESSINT

[7] = target: T5, Muscarinic acetylcholine receptor M1 (Homo sapiens, UniProt P11229); assay type: functional
T5 sequence (P11229 whole entry): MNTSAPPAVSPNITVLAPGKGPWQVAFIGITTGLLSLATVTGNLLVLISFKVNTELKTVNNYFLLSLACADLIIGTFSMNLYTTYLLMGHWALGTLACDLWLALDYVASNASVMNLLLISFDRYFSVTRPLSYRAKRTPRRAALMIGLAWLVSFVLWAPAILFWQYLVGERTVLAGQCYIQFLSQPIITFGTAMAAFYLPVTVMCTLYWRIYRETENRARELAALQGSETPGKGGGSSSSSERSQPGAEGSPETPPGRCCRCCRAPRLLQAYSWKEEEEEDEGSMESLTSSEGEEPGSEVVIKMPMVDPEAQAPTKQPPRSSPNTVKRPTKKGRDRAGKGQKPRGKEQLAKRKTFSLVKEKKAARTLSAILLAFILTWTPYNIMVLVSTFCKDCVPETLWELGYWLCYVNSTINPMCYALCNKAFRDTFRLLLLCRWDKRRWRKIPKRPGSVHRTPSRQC
Also: assay procedure not described here.

Compound | AC50 [1] [µM] | AC50 (Histamine H2 receptor) [µM] | AC50 [2] [µM] | AC50 [3] [µM] | AC50 [4] [µM] | AC50 [5] [µM] | AC50 [6] [µM] | AC50 [7] [µM]
CCC1(CC)C(=O)NC(=O)N(C)C1=O [METHARBITAL] | > 30 | > 10 | > 10 | > 10 | > 10 | > 10 | > 10 | > 10
COC(=O)[C@H]1[C@H]2C[C@@H]3c4[nH]c5ccccc5c4CCN3C[C@H]2C[C@@H](OC(=O)c2cc(OC)c(OC)c(OC)c2)[C@@H]1OC [DESERPIDINE] | > 30 | > 10 | > 10 | > 10 | > 30 | > 10 | 24.6 | > 10
OCC(O)COc1ccc(Cl)cc1 (centres undefined) | > 30 | > 10 | > 10 | > 10 | > 10 | > 10 | > 10 | > 10
Cc1cnc(Nc2ccc(OCCN3CCCC3)cc2)nc1Nc1cccc(S(=O)(=O)NC(C)(C)C)c1 [FEDRATINIB] | > 30 | > 10 | > 10 | > 30 | > 10 | > 10 | 9.16 | 1.2
TEPRENONE | > 30 | > 10 | > 10 | – | > 10 | > 10 | > 30 | > 10
C[C@@H](Cc1ccccc1)N(C)Cc1ccccc1 [BENZPHETAMINE] | > 30 | > 10 | > 10 | > 30 | > 10 | 6.96 | > 10 | > 10
OCC(CO)N[C@H]1C[C@](O)(CO)[C@@H](O)[C@H](O)[C@H]1O [VOGLIBOSE] | > 30 | > 30 | > 30 | > 30 | > 30 | > 30 | > 30 | > 30
CCOC(=O)O[C@]1(C(=O)COC(=O)CC)CC[C@H]2[C@@H]3CCC4=CC(=O)C=C[C@]4(C)[C@H]3[C@@H](O)C[C@@]21C [PREDNICARBATE] | > 30 | > 10 | > 10 | > 10 | > 10 | > 10 | > 10 | > 10
Cc1cccc(Nc2ccncc2S(=O)(=O)NC(=O)NC(C)C)c1 [TORSEMIDE] | > 30 | > 10 | > 10 | > 10 | > 30 | > 10 | > 30 | –
CN(C)CCOC(=O)C(c1ccccc1)C1(O)CCCC1 (centres undefined) [CYCLOPENTOLATE] | > 30 | > 30 | > 10 | > 30 | > 10 | > 30 | > 10 | 0.069
O=C(C[S+]([O-])Cc1ccco1)NC/C=C\COc1cc(CN2CCCCC2)ccn1 (centres undefined) [LAFUTIDINE] | > 30 | > 10 | > 10 | > 10 | > 10 | > 10 | > 10 | > 10
CCN(C(C)=O)c1cccc(-c2ccnc3c(C#N)cnn23)c1 [ZALEPLON] | > 30 | > 10 | > 10 | > 30 | > 30 | > 10 | > 30 | –
Nc1ccc(S(=O)(=O)Nc2ncccn2)cc1 [SULFADIAZINE] | > 30 | > 10 | > 10 | > 10 | > 10 | > 10 | > 10 | –
CC(C(=O)O)c1ccc(C(=O)c2ccccc2)s1 (centres undefined) [TIAPROFENIC ACID] | > 30 | > 10 | > 10 | > 10 | > 10 | 10 | > 10 | > 10
CCC(=O)[C@@]1(C)[C@H](C)C[C@H]2[C@@H]3CCC4=CC(=O)C=C[C@]4(C)[C@H]3[C@@H](O)C[C@@]21C [RIMEXOLONE] | > 30 | > 10 | > 10 | > 10 | > 10 | > 10 | > 10 | > 10
C=C(c1ccccc1OCc1cccc(Cl)c1)n1ccnc1 [CROCONAZOLE] | 18 | > 10 | > 10 | > 30 | > 10 | 9.4 | > 30 | > 10
CC(=O)OCC1=C(C(=O)O)N2C(=O)[C@@H](NC(=O)CSc3ccncc3)[C@H]2SC1 [CEPHAPIRIN] | > 30 | > 10 | > 10 | > 10 | > 10 | > 10 | > 10 | > 10
Nc1nc(Cl)nc2c1ncn2[C@@H]1O[C@H](CO)[C@@H](O)[C@@H]1F [CLOFARABINE] | > 30 | > 30 | > 10 | > 30 | > 30 | 29 | > 30 | > 30
CC(C)CN(C[C@@H](O)[C@H](Cc1ccccc1)NC(=O)O[C@H]1CCOC1)S(=O)(=O)c1ccc(N)cc1 | > 30 | > 10 | > 10 | > 10 | > 30 | > 10 | > 30 | –
CC1Cc2ccccc2N1NC(=O)c1ccc(Cl)c(S(N)(=O)=O)c1 (centres undefined) [INDAPAMIDE] | > 30 | > 10 | > 10 | > 30 | > 10 | > 10 | > 30 | –
